Numbers after ± are expanded uncertainties.
Experiment: xn = mol fraction of the nth substance listed
Settings: Liquid, Vibrating tube method

Question: With `COc1cc2c(cc1O)CC1c3c(cc(O)c(OC)c3-2)CCN1C` (stereo not given) [boldine] + CCO as the molecule, how does the mass density (342.88 K, 1000 kPa, x1 = 0.0267) read?
Answer: 802.49 ± 0.7 kg/m3

Question: What about the mass density (342.88 K, 2000 kPa, x1 = 0.0267) of the same molecule?
Answer: 803.51 ± 0.7 kg/m3

Question: And the mass density (342.88 K, 3000 kPa, x1 = 0.0267)?
Answer: 804.51 ± 0.7 kg/m3

Question: What about the mass density (342.88 K, 4000 kPa, x1 = 0.0267) of the same molecule?
Answer: 805.52 ± 0.7 kg/m3

Question: What about the mass density (342.88 K, 5000 kPa, x1 = 0.0267) of the same molecule?
Answer: 806.51 ± 0.7 kg/m3

Question: And the mass density (342.88 K, 6000 kPa, x1 = 0.0267)?
Answer: 807.51 ± 0.7 kg/m3

Question: What about the mass density (342.88 K, 7000 kPa, x1 = 0.0267) of the same molecule?
Answer: 808.51 ± 0.71 kg/m3

Question: And the mass density (342.88 K, 8000 kPa, x1 = 0.0267)?
Answer: 809.49 ± 0.71 kg/m3

Question: What about the mass density (342.88 K, 9000 kPa, x1 = 0.0267) of the same molecule?
Answer: 810.47 ± 0.71 kg/m3

Question: What about the mass density (342.88 K, 10000 kPa, x1 = 0.0267) of the same molecule?
Answer: 811.43 ± 0.71 kg/m3

Question: What about the mass density (342.88 K, 11000 kPa, x1 = 0.0267) of the same molecule?
Answer: 812.4 ± 0.71 kg/m3

Question: And the mass density (342.88 K, 12000 kPa, x1 = 0.0267)?
Answer: 813.36 ± 0.72 kg/m3

Question: What about the mass density (342.88 K, 13000 kPa, x1 = 0.0267) of the same molecule?
Answer: 814.3 ± 0.72 kg/m3

Question: What about the mass density (342.88 K, 14000 kPa, x1 = 0.0267) of the same molecule?
Answer: 815.22 ± 0.72 kg/m3

Question: And the mass density (342.88 K, 15000 kPa, x1 = 0.0267)?
Answer: 816.14 ± 0.72 kg/m3

Question: What about the mass density (342.88 K, 16000 kPa, x1 = 0.0267) of the same molecule?
Answer: 817.05 ± 0.73 kg/m3

Question: And the mass density (342.88 K, 17000 kPa, x1 = 0.0267)?
Answer: 817.95 ± 0.73 kg/m3

Question: What about the mass density (342.88 K, 18000 kPa, x1 = 0.0267) of the same molecule?
Answer: 818.81 ± 0.73 kg/m3

Question: And the mass density (342.88 K, 19000 kPa, x1 = 0.0267)?
Answer: 819.68 ± 0.73 kg/m3

Question: What about the mass density (342.88 K, 20000 kPa, x1 = 0.0267) of the same molecule?
Answer: 820.53 ± 0.74 kg/m3

Question: And the mass density (342.9 K, 1000 kPa, x1 = 0.0196)?
Answer: 790.39 ± 0.84 kg/m3

Question: What about the mass density (342.9 K, 2000 kPa, x1 = 0.0196) of the same molecule?
Answer: 791.42 ± 0.84 kg/m3

Question: And the mass density (342.9 K, 3000 kPa, x1 = 0.0196)?
Answer: 792.45 ± 0.84 kg/m3

Question: What about the mass density (342.9 K, 4000 kPa, x1 = 0.0196) of the same molecule?
Answer: 793.47 ± 0.84 kg/m3

Question: And the mass density (342.9 K, 5000 kPa, x1 = 0.0196)?
Answer: 794.49 ± 0.84 kg/m3

Question: What about the mass density (342.9 K, 6000 kPa, x1 = 0.0196) of the same molecule?
Answer: 795.52 ± 0.84 kg/m3

Question: And the mass density (342.9 K, 7000 kPa, x1 = 0.0196)?
Answer: 796.52 ± 0.84 kg/m3

Question: What about the mass density (342.9 K, 8000 kPa, x1 = 0.0196) of the same molecule?
Answer: 797.53 ± 0.84 kg/m3

Question: And the mass density (342.9 K, 9000 kPa, x1 = 0.0196)?
Answer: 798.53 ± 0.84 kg/m3

Question: And the mass density (342.9 K, 10000 kPa, x1 = 0.0196)?
Answer: 799.52 ± 0.84 kg/m3

Question: And the mass density (342.9 K, 11000 kPa, x1 = 0.0196)?
Answer: 800.49 ± 0.84 kg/m3

Question: What about the mass density (342.9 K, 12000 kPa, x1 = 0.0196) of the same molecule?
Answer: 801.46 ± 0.85 kg/m3

Question: What about the mass density (342.9 K, 13000 kPa, x1 = 0.0196) of the same molecule?
Answer: 802.42 ± 0.85 kg/m3

Question: What about the mass density (342.9 K, 14000 kPa, x1 = 0.0196) of the same molecule?
Answer: 803.37 ± 0.85 kg/m3

Question: What about the mass density (342.9 K, 15000 kPa, x1 = 0.0196) of the same molecule?
Answer: 804.3 ± 0.85 kg/m3

Question: And the mass density (342.9 K, 16000 kPa, x1 = 0.0196)?
Answer: 805.22 ± 0.85 kg/m3

Question: And the mass density (342.9 K, 17000 kPa, x1 = 0.0196)?
Answer: 806.13 ± 0.86 kg/m3

Question: What about the mass density (342.9 K, 18000 kPa, x1 = 0.0196) of the same molecule?
Answer: 807.03 ± 0.86 kg/m3

Question: And the mass density (342.9 K, 19000 kPa, x1 = 0.0196)?
Answer: 807.91 ± 0.86 kg/m3

Question: And the mass density (342.9 K, 20000 kPa, x1 = 0.0196)?
Answer: 808.78 ± 0.86 kg/m3

Question: What about the mass density (342.92 K, 1000 kPa, x1 = 0.0012) of the same molecule?
Answer: 748.44 ± 0.88 kg/m3

Question: What about the mass density (342.92 K, 1000 kPa, x1 = 0.0074) of the same molecule?
Answer: 761.5 ± 0.89 kg/m3

Question: And the mass density (342.92 K, 2000 kPa, x1 = 0.0012)?
Answer: 749.56 ± 0.87 kg/m3

Question: And the mass density (342.92 K, 2000 kPa, x1 = 0.0074)?
Answer: 762.58 ± 0.89 kg/m3

Question: And the mass density (342.92 K, 3000 kPa, x1 = 0.0012)?
Answer: 750.65 ± 0.87 kg/m3

Question: And the mass density (342.92 K, 3000 kPa, x1 = 0.0074)?
Answer: 763.66 ± 0.89 kg/m3

Question: What about the mass density (342.92 K, 4000 kPa, x1 = 0.0012) of the same molecule?
Answer: 751.76 ± 0.87 kg/m3

Question: What about the mass density (342.92 K, 4000 kPa, x1 = 0.0074) of the same molecule?
Answer: 764.73 ± 0.89 kg/m3

Question: What about the mass density (342.92 K, 5000 kPa, x1 = 0.0012) of the same molecule?
Answer: 752.85 ± 0.87 kg/m3

Question: What about the mass density (342.92 K, 5000 kPa, x1 = 0.0074) of the same molecule?
Answer: 765.81 ± 0.89 kg/m3

Question: And the mass density (342.92 K, 6000 kPa, x1 = 0.0012)?
Answer: 753.94 ± 0.88 kg/m3

Question: What about the mass density (342.92 K, 6000 kPa, x1 = 0.0074) of the same molecule?
Answer: 766.87 ± 0.89 kg/m3

Question: And the mass density (342.92 K, 7000 kPa, x1 = 0.0012)?
Answer: 755.02 ± 0.88 kg/m3

Question: And the mass density (342.92 K, 7000 kPa, x1 = 0.0074)?
Answer: 767.93 ± 0.89 kg/m3

Question: What about the mass density (342.92 K, 8000 kPa, x1 = 0.0012) of the same molecule?
Answer: 756.1 ± 0.88 kg/m3

Question: And the mass density (342.92 K, 8000 kPa, x1 = 0.0074)?
Answer: 768.98 ± 0.9 kg/m3

Question: What about the mass density (342.92 K, 9000 kPa, x1 = 0.0012) of the same molecule?
Answer: 757.16 ± 0.88 kg/m3

Question: What about the mass density (342.92 K, 9000 kPa, x1 = 0.0074) of the same molecule?
Answer: 770.04 ± 0.9 kg/m3

Question: And the mass density (342.92 K, 10000 kPa, x1 = 0.0012)?
Answer: 758.21 ± 0.88 kg/m3

Question: What about the mass density (342.92 K, 10000 kPa, x1 = 0.0074) of the same molecule?
Answer: 771.07 ± 0.9 kg/m3

Question: What about the mass density (342.92 K, 11000 kPa, x1 = 0.0012) of the same molecule?
Answer: 759.27 ± 0.89 kg/m3

Question: What about the mass density (342.92 K, 11000 kPa, x1 = 0.0074) of the same molecule?
Answer: 772.09 ± 0.9 kg/m3

Question: And the mass density (342.92 K, 12000 kPa, x1 = 0.0012)?
Answer: 760.3 ± 0.89 kg/m3

Question: What about the mass density (342.92 K, 12000 kPa, x1 = 0.0074) of the same molecule?
Answer: 773.12 ± 0.9 kg/m3

Question: And the mass density (342.92 K, 13000 kPa, x1 = 0.0012)?
Answer: 761.33 ± 0.89 kg/m3

Question: What about the mass density (342.92 K, 13000 kPa, x1 = 0.0074) of the same molecule?
Answer: 774.1 ± 0.91 kg/m3

Question: And the mass density (342.92 K, 14000 kPa, x1 = 0.0012)?
Answer: 762.33 ± 0.89 kg/m3

Question: And the mass density (342.92 K, 14000 kPa, x1 = 0.0074)?
Answer: 775.1 ± 0.91 kg/m3

Question: What about the mass density (342.92 K, 15000 kPa, x1 = 0.0012) of the same molecule?
Answer: 763.33 ± 0.89 kg/m3

Question: What about the mass density (342.92 K, 15000 kPa, x1 = 0.0074) of the same molecule?
Answer: 776.07 ± 0.91 kg/m3

Question: What about the mass density (342.92 K, 16000 kPa, x1 = 0.0012) of the same molecule?
Answer: 764.31 ± 0.9 kg/m3

Question: And the mass density (342.92 K, 16000 kPa, x1 = 0.0074)?
Answer: 777.04 ± 0.91 kg/m3

Question: And the mass density (342.92 K, 17000 kPa, x1 = 0.0012)?
Answer: 765.26 ± 0.9 kg/m3

Question: And the mass density (342.92 K, 17000 kPa, x1 = 0.0074)?
Answer: 777.98 ± 0.92 kg/m3

Question: And the mass density (342.92 K, 18000 kPa, x1 = 0.0012)?
Answer: 766.22 ± 0.9 kg/m3
